Experimental data reported in ChEMBL document CHEMBL1159373, “New acetylenic acids from a sponge of the genus Stelletta” (2003).
In brackets after ≈: the same amount, converted by molar mass.

Tested on: K562
Test: Cytotoxicity against human K562 cells
Assay type: functional
Settings: read-out: LC50 (the source's name)

Row | Compound | CC50 [µg/mL]
1 | C=CCCCCC(C)CCCCCC#CCCC(OC)C(=O)OC(=O)C(CCC#CCCCCCC(C)CCCCC=C)OC (configuration not stated) | 62.5 (≈ 99.7 µM)
2 | C=CCCCCC(C)CCCCCC#CCCCC(=O)O (configuration not stated) | 43.5 (≈ 149 µM)
